According to ChEMBL document CHEMBL1158462, “Recent advances in the development of polyamine analogues as antitumor agents” (J Med Chem, 2009):
pIC50: −log10 of the molar value.

tested on: DU-145; assay: Antitumor activity against human DU145 cells; format: functional, cell-based; settings: not given

| pIC50 | Structure (SMILES) |
| --- | --- |
| 6.85 | CCNC/C=C\CNCCCCNCCCCNC/C=C\CNCC |

tested on: HeLa; assay: Antiproliferative activity against human HeLa cells; format: functional, cell-based; settings: not given

| pIC50 | Structure (SMILES) |
| --- | --- |
| 5.30 | NCCCNCCCCCCCCNCCCN |

tested on: DuPro; assay: Antitumor activity against human DuPro cells; format: functional, cell-based; settings: not given

| pIC50 | Structure (SMILES) |
| --- | --- |
| 6.22 | CCCCCCCCCCCCCC1CC(=O)NCCCNCCCCNCCCN1 (stereo unspecified) [BUDMUNCHIAMINE L4] |
| 6.85 | CCNC/C=C\CNCCCCNCCCCNC/C=C\CNCC |

tested on: L1210; assay: Antitumor activity against mouse L1210 cells; format: functional, cell-based; settings: not given

| pIC50 | Structure (SMILES) |
| --- | --- |
| 6.30 | CCNCCCNCCCCNCCCNCC [BIS(ETHYL)SPERMINE] |
| 6.70 | CCNCCCNCCCNCCCNCC [BIS(ETHYL)NORSPERMINE] |
| 6.22 | CCNCC[C@@H](O)CNCCCCNC[C@H](O)CCNCC |

tested on: not listed separately; assay: cells; settings: Mus musculus, ML1
Description: Antitumor activity against mouse ML1 cells

| pIC50 | Structure (SMILES) |
| --- | --- |
| 6.12 | Nc1ccccc1NC(=O)c1ccc(CNC(=O)OCc2cccnc2)cc1 [ENTINOSTAT] |
| 6.60 | CC(/C=C/C(=O)NO)=C\[C@@H](C)C(=O)c1ccc(N(C)C)cc1 [TRICHOSTATIN] |

tested on: MCF-10A; assay: cells; format: functional, cell-based; settings: Homo sapiens
Description: Antitumor activity against human MCF10A cells

| Structure (SMILES) | pIC50 |
| --- | --- |
| Nc1ccccc1NC(=O)c1ccc(CNC(=O)CCCCC(=O)NCCCNCCCCNCCC(c2ccccc2)c2ccccc2)cc1 | < 4.52 |
| O=C(CCCCCCC(=O)NCc1ccc(C(=O)O)cc1)NCCCNCCCCNCC(c1ccccc1)c1ccccc1 | < 4.52 |
| Nc1ccccc1NC(=O)c1ccc(CNC(=O)CCCCCCC(=O)NCCCNCCCCNCCC(c2ccccc2)c2ccccc2)cc1 | < 4.52 |
| Nc1ccccc1NC(=O)c1ccc(CNC(=O)CCCCCCCCC(=O)NCCCNCCCCNCCC(c2ccccc2)c2ccccc2)cc1 | < 4.52 |
| CC(=O)C(=O)NCCCCCC(=O)NCCCNCCCCNCCC(c1ccccc1)c1ccccc1 | < 4.52 |
| Nc1ccccc1NC(=O)c1ccc(CNC(=O)CCCCCCCC(=O)NCCCNCCCCNCCC(c2ccccc2)c2ccccc2)cc1 | < 4.52 |
| Nc1ccccc1NC(=O)c1ccc(CNC(=O)CCCCC(=O)NCCCNCCCCNCc2ccccc2-c2ccccc2)cc1 | < 4.52 |
| Cc1ccc(CNCCCCNC(=O)CCCCCC(=O)NCc2ccc(C(=O)Nc3ccccc3N)cc2)cc1 | 4.62 |

tested on: MCF7; assay: cells; format: functional, cell-based; settings: Homo sapiens
Description: Antitumor activity against human MCF7 cells

| Structure (SMILES) | pIC50 |
| --- | --- |
| Nc1ccccc1NC(=O)c1ccc(CNC(=O)CCCCC(=O)NCCCNCCCCNCCC(c2ccccc2)c2ccccc2)cc1 | < 4.52 |
| O=C(CCCCCCC(=O)NCc1ccc(C(=O)O)cc1)NCCCNCCCCNCC(c1ccccc1)c1ccccc1 | < 4.52 |
| Nc1ccccc1NC(=O)c1ccc(CNC(=O)CCCCCCC(=O)NCCCNCCCCNCCC(c2ccccc2)c2ccccc2)cc1 | < 4.52 |
| Nc1ccccc1NC(=O)c1ccc(CNC(=O)CCCCCCCCC(=O)NCCCNCCCCNCCC(c2ccccc2)c2ccccc2)cc1 | < 4.52 |
| Nc1ccccc1NC(=O)c1ccc(CNC(=O)CCCCCCCC(=O)NCCCNCCCCNCCC(c2ccccc2)c2ccccc2)cc1 | < 4.52 |
| Nc1ccccc1NC(=O)c1ccc(CNC(=O)CCCCC(=O)NCCCNCCCCNCc2ccccc2-c2ccccc2)cc1 | < 4.52 |

Second part, the compound after the results:

| pIC50 | Structure (SMILES) |
| --- | --- |
| < 4.52 | CC(=O)C(=O)NCCCCCC(=O)NCCCNCCCCNCCC(c1ccccc1)c1ccccc1 |
| 6.05 | Cc1ccc(CNCCCCNC(=O)CCCCCC(=O)NCc2ccc(C(=O)Nc3ccccc3N)cc2)cc1 |

molecular target: Histone deacetylase (Homo sapiens) (UniProt Q13547+O15379+Q9UBN7+Q92769+Q9UQL6+Q8WUI4+Q9BY41+Q96DB2+P56524+Q9UKV0+Q969S8); assay: not given; settings: HeLa, at 5 µM

| Structure (SMILES) | inhibition |
| --- | --- |
| Nc1ccccc1NC(=O)c1ccc(CNC(=O)CCCCC(=O)NCCCNCCCCNCCC(c2ccccc2)c2ccccc2)cc1 | 48.4% |
| O=C(CCCCCCC(=O)NCc1ccc(C(=O)O)cc1)NCCCNCCCCNCC(c1ccccc1)c1ccccc1 | 72.6% |
| Nc1ccccc1NC(=O)c1ccc(CNC(=O)CCCCCCCCC(=O)NCCCNCCCCNCCC(c2ccccc2)c2ccccc2)cc1 | 42.9% |
| Nc1ccccc1NC(=O)c1ccc(CNC(=O)CCCCCCCC(=O)NCCCNCCCCNCCC(c2ccccc2)c2ccccc2)cc1 | 47% |
| Nc1ccccc1NC(=O)c1ccc(CNC(=O)CCCCC(=O)NCCCNCCCCNCc2ccccc2-c2ccccc2)cc1 | 60.1% |

The next lines start with the values.

| inhibition | Structure (SMILES) |
| --- | --- |
| 30.2% | CC(=O)C(=O)NCCCCCC(=O)NCCCNCCCCNCCC(c1ccccc1)c1ccccc1 |
| 48.1% | Cc1ccc(CNCCCCNC(=O)CCCCCC(=O)NCc2ccc(C(=O)Nc3ccccc3N)cc2)cc1 |

tested on: PC-3; assay: cells; settings: Homo sapiens
Description: Antitumor activity against human PC3 cells

| pIC50 | Structure (SMILES) |
| --- | --- |
| 6.22 | CCCCCCCCCCCCCC1CC(=O)NCCCNCCCCNCCCN1 (stereo unspecified) [BUDMUNCHIAMINE L4] |
| 6.85 | CCNC/C=C\CNCCCCNCCCCNC/C=C\CNCC |

tested on: LNCaP; assay: Antitumor activity against human LNCAP cells; format: functional, cell-based; settings: not given

| pIC50 | Structure (SMILES) |
| --- | --- |
| 6.85 | CCNC/C=C\CNCCCCNCCCCNC/C=C\CNCC |

tested on: Malme-3M; assay: Antitumor activity against human MALME-3M cells; format: functional, cell-based; settings: not given

| pIC50 | Structure (SMILES) |
| --- | --- |
| 6.70 | CCNCCCNCCCNCCCNCC [BIS(ETHYL)NORSPERMINE] |
